# Measured values from patent publication US20230087342A1, “AZEPANE DERIVATIVE” (Nippon Chemiphar Co., Ltd., priority 2019, published 2023).
# Legend:
# [1] = test system: ICR male mice; test: Mouse acetic acid writhing test; format: in vivo; conditions: Oral, hydrochloride
# Method: Mouse Acetic Acid Writhing Test
# The analgesic effect of the test compound was evaluated by an acetic acid writhing test. For the experiment, ICR male mice were used and acclimated to a plastic open field for 30 minutes before starting the test. After acclimation, the mice were administered with the test compound (30 to 3000 μg/kg) or water for injection subcutaneously or orally, and once returned to the open field. Thirty minutes after the administration of the test compound, a 0.6% aqueous acetic acid solution was additionally administered to the same mice by intraperitoneal administration. From 10 minutes after administration of the 0.6% aqueous acetic acid solution, the number of writhing reactions (writhing reactions in which the mouse stretches while pressing the abdominal cavity against the floor) induced in the mice was measured for 10 minutes, and the number of writhing reactions was compared with that of a control group (water for injection-administrated group) to evaluate the analgesic effect of the test compound.
# [2] = Metabolic stability test; format: in vitro ADME; conditions: human liver microsomes, 0 to 30 minutes; a hydrochloride was used
# Method: To determine the unchanged product-residual ratio of the test compound in the reaction sample, human liver microsomes and the test compound were reacted for a predetermined time (0 to 30 minutes). The unchanged product-residual ratio at a reaction time of 0 hours was considered 100%, the residual ratio after incubation was log-linear plotted with respect to the time, a regression line (y=100 e^−kt, k=slope of the line: elimination rate constant) was determined, and the metabolic clearance CLint (mL/min/kg) was calculated using the following formula.
# CLint*=k (−min)×45 (mg MS protein/g liver)×21 (g liver/kg)/MS protein (mg MS protein/mL)
# *: Yamazaki S.; Skaptason J.; Romero D, Vekich S.; Jones HM.; Tan W.; Wilner KD.; Koudriakova T. Drug Metab. Dispos. 2011 March; 39 (3): 383-393.
# [3] = target: T1, human κ opioid receptors (Homo sapiens, UniProt P41145); test: Opioid receptor function test (Lance Ultra cAMP kit, agonist activity); format: cell-based; conditions: CHO cells expressing human κ opioid receptors, 10 μM forskolin, 30 minutes
# T1 construct: host or cells: CHO cells
# How it was run: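 CHO cells expressing human κ opioid receptor incubated 30 min with test compound (10^−14 to 10^−7 M) and 10 μM forskolin in HSS/5 mM HEPES pH 7.4 with 0.5 mM IBMX and 0.1% SA. cAMP measured by TR-FRET (Lance Ultra) 1 h after detection reagent addition.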
# T1 sequence (P41145 whole entry): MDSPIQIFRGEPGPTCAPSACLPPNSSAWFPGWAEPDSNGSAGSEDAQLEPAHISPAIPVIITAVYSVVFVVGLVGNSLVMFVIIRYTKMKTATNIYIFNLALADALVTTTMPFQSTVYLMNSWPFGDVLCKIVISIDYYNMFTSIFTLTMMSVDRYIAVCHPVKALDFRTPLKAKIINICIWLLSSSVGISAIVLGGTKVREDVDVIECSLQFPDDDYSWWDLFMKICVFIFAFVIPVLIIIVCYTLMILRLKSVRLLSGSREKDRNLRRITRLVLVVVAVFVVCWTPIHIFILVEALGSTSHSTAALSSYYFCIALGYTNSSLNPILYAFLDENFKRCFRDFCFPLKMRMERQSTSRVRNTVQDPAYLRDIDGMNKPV
structure (smiles),measurement,setting,value
"O=C(Cc1ccccn1)N1CC[C@]23CCN(CC4CC4)[C@H](Cc4cc(Cl)c(O)cc42)[C@]3(O)CC1 [Example 308, 1-((5aS,6R,11bR)-9-chloro-14-(cyclopropylmethyl)-5a,10-dihydroxy-1,2,5,5a,6,7-hexahydro-6,11b-(epiminoethano)naphtho[1,2-d]azepin-3(4H)-yl)-2-(pyridin-2-yl)ethan-1-one]",ED50,"[1]; Mus musculus, read-out: ED50 value (writhing suppressing effect)",1.42 mg/kg
same,Writhing suppression rate,[1]; dose 1000 (μg/kg),+ (40 ≤ % <60: +)
same,Writhing suppression rate,[1]; dose 3000 (μg/kg),++ (60 ≤ % <80: ++)
same,CLint scaled,[2],9 mL/min/kg
same,EC50,[3],0.6 nM
